Reference: patent publication US20240165123A1, “USE OF A COMPOUND CONTAINING A TRICYCLIC HETEROARYL GROUP” (CSPC Zhongqi Pharmaceutical Technology (Shijiazhuang) Co., …, priority 2021, published 2024)

System: OXA-induced Balb/c mouse atopic dermatitis model
Test: Pharmacodynamic test in the OXA-induced mouse atopic dermatitis model
Assay type: in vivo, female Balb/c mice
From the text: The purpose of this test was to evaluate the pharmacodynamics of Compound (I) in the OXA-induced Balb/c mouse atopic dermatitis model. Repeated OXA stimulation of the dorsal skin of mice could produce a long-term inflammatory reaction. This model was closer to the clinical skin inflammation and was a common model for screening and evaluating compounds with anti-inflammatory activity.
Female Balb/c mice aged 8-9 weeks, number: 70
According to the body weight of animals in each group before administration, they were randomly divided into 7 groups with 10 animals in each group.
OXA induction was performed on the 7th day. The induction mode was to apply 5% OXA (dissolved in the acetone/olive oil (4/1) solvent) to the back of mice near the neck in an amount of 10 μL (1.5 cm×1.5 cm). Mice in the normal control group were applied with 10 μL of the acetone/olive oil (4/1) solvent in the same way. From the 1st da to 22nd day, the immunostimulation was performed, and 100 μL of 0.1% OXA (dissolved in the acetone/olive oil (4/1) solvent) was evenly applied on the back of mice near the neck. The application was performed every two days. Mice in the normal control group were applied with 100 μL of the acetone/olive oil (4/1) solvent in the same way. On the day of the immunostimulation, measuring the skin thickness, clinically scoring and photographing were required, and the OXA application was carried out after the above work was completed.
Compound (I) was administered by gavage twice a day (PO, bid) from the 1st to 22nd day. The administration was performed in the morning and completed before measuring the skin thickness, clinically scoring, photographing, and the OXA immunostimulation. The interval between two administrations was 8 hours.
Body weight data were recorded twice a week.
Skin thickness (1.5 cm×1.5 cm, the modeling area) was measured with a Mitutoyo digital indicator (Mitutoyo digimatic indicator, Type ID-C, USA) from the 1st to 22nd day. The measurement was performed every two days. If the skin thickness measurement and the OXA immunostimulation were performed on the same day, the skin thickness measurement would be preferred.
The skin in the modeling area was clinically scored according to the skin scoring criteria in Table 12 from the 1st to 22nd day and evaluated every two days. If the skin clinical scoring and the OXA immunostimulation were performed on the same day, the skin clinical scoring would be preferred.
At the end of the study, the tissue in the modeling area was stained with hematoxylin eosin for the skin pathological scoring and the epidermal thickness measurement.
After the mice were sacrificed, the dorsal skin was removed and fixed in 10% neutral formalin for 24 hours. It was dehydrated, then embedded in paraffin and made into 4-micron sections. The skin sections were stained with hematoxylin eosin, and the inflammatory cell infiltration and tissue changes in the stratum corneum, the epidermis layer and the dermis layer were observed under the microscope, and the pathological scores were made. The scoring criteria were: inflammatory cell aggregation and edema, which were divided into slight 1 point, moderate 2 points, and severe 3 points; telangiectasia, which was divided into slight 1 point, moderate 2 points, and severe 3 points.
The specific scoring criteria of inflammatory cell aggregation were as follows: (1) slight-1 point: inflammatory cells occupied a small amount of <10% of the dermal area of the skin; (2) moderate-2 points: inflammatory cells occupied 10%-50% of the dermal area of the skin; (3) severe-3 points: the inflammatory cells occupied greater than 50% of the dermal area of the skin. […]

[1] = 3 mpk PO bid, after 22 days of treatment

## NC(=O)c1cnc(Nc2ccc3c(c2)OC[C@H]2CN(S(=O)(=O)C4CC4)CCN32)nc1NC1CC1 [Compound (I), (R)-4-(cyclopropylamino)-2-((3-(cyclopropylsulfonyl)-1,2,3,4,4a,5-hexahydrobenzo[b]pyrazolo[1,2-d][1,4]oxazin-8-yl)amino)pyrimidine-5-arboxamide]
3, 10, 30 and 60 mpk PO bid, end of the study
  Influence on the body weight of mice: no significant influence on the body weight of mice
3 mpk PO bid, 1st Day
  Body weight: 18.11 ± 0.13 g
  Skin clinical score: 0.4 ± 0.16
3 mpk PO bid, 1st day
  Skin thickness (modeling area): 0.511 ± 0.016 mm
3 mpk PO bid, 7th Day
  Body weight: 18.83 ± 0.20 g
3 mpk PO bid, 7th day
  Skin thickness (modeling area): 0.944 ± 0.026 mm
3 mpk PO bid, 9th day
  Skin clinical score: 3.1 ± 0.10
3 mpk PO bid, 17th day
  Skin thickness (modeling area): 1.361 ± 0.043 mm
3 mpk PO bid, 19th day
  Skin clinical score: 2.9 ± 0.10
3 mpk PO bid, 22nd day
  Skin clinical score: 3.0 ± 0.00
  Skin thickness (modeling area): 1.368 ± 0.028 mm
[1]
  Epidermal thickness: 75.79 ± 3.36 μm
  Pathological score: 6.4 ± 0.34
3 mpk PO bid, −7th Day
  Body weight: 18.11 ± 0.13 g
10 mpk PO bid, 1st Day
  Body weight: 18.11 ± 0.13 g
  Skin clinical score: 0.4 ± 0.16
10 mpk PO bid, 1st day
  Skin thickness (modeling area): 0.535 ± 0.027 mm
10 mpk PO bid, 7th Day
  Body weight: 18.80 ± 0.22 g
10 mpk PO bid, 7th day
  Skin thickness (modeling area): 0.958 ± 0.026 mm
10 mpk PO bid, 9th day
  Skin clinical score: 3.0 ± 0.00
10 mpk PO bid, 17th day
  Skin thickness (modeling area): 1.257 ± 0.020 mm
10 mpk PO bid, 19th day
  Skin clinical score: 2.7 ± 0.15
10 mpk PO bid, 22nd day
  Skin clinical score: 2.7 ± 0.15
  Skin thickness (modeling area): 1.338 ± 0.021 mm
10 mpk PO bid, −7th Day
  Body weight: 18.11 ± 0.13 g
30 mpk PO bid, 1st Day
  Body weight: 18.10 ± 0.12 g
  Skin clinical score: 0.5 ± 0.17
30 mpk PO bid, 1st day
  Skin thickness (modeling area): 0.534 ± 0.029 mm
30 mpk PO bid, 7th Day
  Body weight: 18.79 ± 0.11 g
30 mpk PO bid, 7th day
  Skin thickness (modeling area): 0.976 ± 0.021 mm
30 mpk PO bid, 9th day
  Skin clinical score: 3.0 ± 0.00
30 mpk PO bid, −7th Day
  Body weight: 18.10 ± 0.12 g
60 mpk PO bid, 1st Day
  Body weight: 18.10 ± 0.12 g
  Skin clinical score: 0.6 ± 0.16
60 mpk PO bid, 1st day
  Skin thickness (modeling area): 0.556 ± 0.035 mm
60 mpk PO bid, 7th Day
  Body weight: 18.92 ± 0.13 g
60 mpk PO bid, 7th day
  Skin thickness (modeling area): 0.993 ± 0.033 mm
60 mpk PO bid, 9th day
  Skin clinical score: 3.0 ± 0.00
60 mpk PO bid, −7th Day
  Body weight: 18.10 ± 0.12 g
